The target of the test is T1, human fascin 1 (Homo sapiens, UniProt Q16658).
T1 construct: GST (N, cleaved yes); made in house; host or cells: Escherichia coli BL21/DE3 (pGEX4T-fascin 1 plasmid)
Description: Fascin inhibition (actin bundling) assay, image-based. It is filed as biochemical. As to conditions: in the presence of 50 μm of the compound relative to bundle activity when the compound was not present; read-out: Inhibition (percentage reduction of bundle activity). As to the method: Recombinant human fascin 1 was expressed as a GST fusion protein in BL21 Escherichia coli. One liter of 2YT medium with ampicillin was inoculated overnight with 3 mL of BL21/DE3 culture transformed with pGEX4T-fascin 1 plasmid and grown at 37° C. until attenuance at 600 nm (D600) reached about 0.8. The culture was then transferred to 18° C. and induced by the addition of 0.1 mM isopropyl β-d-thiogalactoside (IPTG) for 12 h. Bacteria were harvested by centrifugation at 5,000 r.p.m. for 10 min. The pellets were suspended in 30 mL of PBS supplemented with 0.2 mM PMSF, 1 mM DTT, 1% (v/v) Triton X-100 and 1 mM EDTA. After sonication, the suspension was centrifuged at 15,000 r.p.m. for 30 min to remove the cell debris. The supernatant was then incubated for 2 h with 4 mL of glutathione beads (Sigma) at 4° C. After extensive washing with PBS, the beads were resuspended in 10 mL of thrombin cleavage buffer (20 mM Tris-HCl pH 8.0, 150 mM NaCl, 2 mM CaCl2, 1 mM DTT). Fascin was released from the beads by incubation overnight with 40-100 U of thrombin at 4° C. After centrifugation, 0.2 mM PMSF was added to the supernatant to inactivate the remnant thrombin activity. The fascin protein was further concentrated with a Centricon® (Boca Raton, Fla.) filter to about 50 mg/mL.
Representative compounds described herein were tested for fascin inhibition activity. Purified fascin protein (15 μL of 0.5 μM) in buffer (100 mM KCl, 20 mM Tris/HCl, pH 7.5, 2 mM MgCl2) was added into each well of a clear 384-well flat-bottom plate (Corning) using Thermo Multidrop Combi (Fisher). Compound solutions (5 mM stock, 180 nL) were pin transferred from stock 384-well plates into the 384-well assay plates and incubated for 30 min. Then 15 μL of 0.5 μM polymerized actin (in 100 mM KCl, 20 mM Tris/HCl, pH 7.5, 2 mM MgCl2, 1 mM DTT, 1 mM ATP) (Cytoskeleton Inc.) was added, resulting in 30 μM final concentration for chemical compounds. […] Mixed solution (25 μL) was then transferred to one well in a black 384-well plate coated with poly-D-lysine, and stained actin bundles or F-actin would stick onto the poly-D-lysine plates. After the plates were thoroughly washed with 1×PBS for 3 times, the plate was imaged using an ImageXpress Micro High Content Screening System (Molecular devices). The images were processed and analyzed using MetaMorph software. The raw image data for each well was background-corrected by subtraction of the median intensities across all wells on the plate. The background-corrected data was used to compute the bundle length for each well. The negative control wells were employed for quality control: multiple DMSO-only control wells (16 wells/plate) were present on each assay plate.

The structures appear in SMILES notation. Some results are limits rather than exact numbers.

The inhibition is the percentage by which the read-out fell short of the control.

As to `FC(F)(F)c1ccc(Cn2nc(-c3ccccc3)c3ccccc32)cc1` [Compound 144, 3-Phenyl-1-(4-(trifluoromethyl)benzyl)-1H-indazole], the inhibition at 50 µM was found to be 10%.

For the compound `Cc1ccc2c(NC(=O)c3cccnn3)nn(Cc3ccc(C(F)(F)F)nc3)c2n1` [Compound 136, N-(6-methyl-1-((6-(trifluoromethyl)pyridin-3-yl)methyl)-1H-pyrazolo[3,4-b]pyridin-3-yl)pyridazine-3-carboxamide], the inhibition at 50 µM was less than 10%.

`Cc1occc1C(=O)Nc1nn(Cc2ccc(Cl)cc2)c2ccccc12` [Compound 67, N-(1-(4-chlorobenzyl)-1H-indazol-3-yl)-2-methylfuran-3-carboxamide]: the inhibition at 50 µM amounted to 50%.

Consider `O=C(Nc1nn(Cc2ccc(C(F)(F)F)cc2)c2ccccc12)c1ccccc1C(F)(F)F` [Compound 50, 2-(trifluoromethyl)-N-(1-(4-(trifluoromethyl)benzyl)-1H-indazol-3-yl)benzamide], for which the inhibition at 50 µM is less than 10%.

Take `Cc1occc1C(=O)Nc1nn(Cc2ccc(C(F)(F)F)cc2)c2cc(C(F)(F)F)ccc12` [Compound 109]: the inhibition at 50 µM is less than 10%.

For `Nc1nn(Cc2ccc(C(F)(F)F)cc2)c2cccc(Cl)c12` [Compound 116, 4-chloro-1-(4-(trifluoromethyl)benzyl)-1H-indazol-3-amine], the inhibition at 50 µM was less than 10%.

On to `Nc1nn(Cc2ccc(C(F)(F)F)cc2)c2ccccc12` [Compound 59, 1-(4-(trifluoromethyl)benzyl)-1H-indazol-3-amine], for which the inhibition at 50 µM is less than 10%.

As to `Cc1ccoc1C(=O)Nc1nn(Cc2ccc(C(F)(F)F)cc2)c2ccccc12` [Compound 29, 3-methyl-N-(1-(4-(trifluoromethyl)benzyl)-1H-indazol-3-yl)furan-2-carboxamide], the inhibition at 50 µM is less than 10%.

For `N#Cc1ccc(Cn2nc(NC(=O)c3cccnn3)c3ccccc32)cc1` [Compound 90, N-(1-(4-cyanobenzyl)-1H-indazol-3-yl)pyridazine-3-carboxamide], the inhibition at 50 µM is less than 10%.

Regarding `O=C(Nc1nn(Cc2ccc(C(F)(F)F)cc2)c2ccccc12)c1cccc(Cl)n1` [Compound 8, 6-chloro-N-(1-(4-(trifluoromethyl)benzyl)-1H-indazol-3-yl)picolinamide], the inhibition at 50 µM was less than 10%.

In the case of `O=C(Nc1nn(Cc2ccc(F)cc2)c2ccccc12)c1ccoc1` [Compound 71, N-(1-(4-fluorobenzyl)-1H-indazol-3-yl)furan-3-carboxamide], the inhibition at 50 µM is less than 10%.

With `O=C(Nc1nn(Cc2ccc(C(F)(F)F)cc2)c2ccccc12)c1cccc(F)c1` [Compound 14, 3-fluoro-N-(1-(4-(trifluoromethyl)benzyl)-1H-indazol-3-yl)benzamide], the inhibition at 50 µM is less than 10%.

Take `Cc1ccc(Cn2nc(NC(=O)c3scnc3C)c3ccccc32)cc1` [Compound 82, 4-methyl-N-(1-(4-methylbenzyl)-1H-indazol-3-yl)thiazole-5-carboxamide]: the inhibition at 50 µM is less than 10%.

On to `O=C(Nc1nn(Cc2ccc(C(F)(F)F)cc2)c2ccccc12)c1ccccc1OC(F)(F)F` [Compound 52, 2-(trifluoromethoxy)-N-(1-(4-(trifluoromethyl)benzyl)-1H-indazol-3-yl)benzamide], for which the inhibition at 50 µM is less than 10%.

For the compound `O=C(Nc1nn(Cc2ccc(C(F)(F)F)cc2)c2ccccc12)c1ccccc1F` [Compound 12, 2-fluoro-N-(1-(4-(trifluoromethyl)benzyl)-1H-indazol-3-yl)benzamide], the inhibition at 50 µM is less than 10%.

As to `Cc1ncsc1C(=O)Nc1nn(Cc2ccc(C(F)(F)F)nc2)c2ccc(C#N)cc12` [Compound 101, N-(5-cyano-1-((6-(trifluoromethyl)pyridin-3-yl)methyl)-1H-indazol-3-yl)-4-methylthiazole-5-carboxamide], the inhibition at 50 µM was less than 10%.

Regarding `Nc1nn(Cc2ccc(F)cc2)c2ccccc12` [Compound 70, 1-(4-fluorobenzyl)-1H-indazol-3-amine], the inhibition at 50 µM is less than 10%.

As to `O=C(Nc1nn(Cc2ccc(C(F)(F)F)cc2)c2cncc(Cl)c12)c1ccoc1` [Compound 140, N-(4-chloro-1-(4-(trifluoromethyl)benzyl)-1H-pyrazolo[3,4-c]pyridin-3-yl)furan-3-carboxamide], the inhibition at 50 µM was determined as 10%.

`O=C(Nc1nn(Cc2ccc(F)cc2)c2ccccc12)c1cccnn1` [Compound 76, N-(1-(4-fluorobenzyl)-1H-indazol-3-yl)pyridazine-3-carboxamide]: the inhibition at 50 µM was less than 10%.

In the case of `Cc1ncsc1C(=O)Nc1nn(Cc2ccc(F)cc2)c2ccccc12` [Compound 75, N-(1-(4-fluorobenzyl)-1H-indazol-3-yl)-4-methylthiazole-5-carboxamide], the inhibition at 50 µM is less than 10%.

Take `N#Cc1ccc(Cn2nc(NC(=O)c3ccno3)c3ccccc32)cc1` [Compound 87, N-(1-(4-cyanobenzyl)-1H-indazol-3-yl)isoxazole-5-carboxamide]: the inhibition at 50 µM is less than 10%.

`Cc1ccc(C(=O)Nc2nn(Cc3ccc(C(F)(F)F)cc3)c3ccccc23)cc1` [Compound 16]: the inhibition at 50 µM was less than 10%.

On to `Cc1nocc1C(=O)Nc1nn(Cc2ccc(C(F)(F)F)cc2)c2cccc(Cl)c12` [Compound 118, N-(4-chloro-1-(4-(trifluoromethyl)benzyl)-1H-indazol-3-yl)-3-methylisoxazole-4-carboxamide], for which the inhibition at 50 µM is less than 10%.

For `Cc1cnoc1C(=O)Nc1nn(Cc2ccc(C(F)(F)F)cc2)c2ccccc12` [Compound 28, 4-methyl-N-(1-(4-(trifluoromethyl)benzyl)-1H-indazol-3-yl)isoxazole-5-carboxamide], the inhibition at 50 µM amounted to 80%.

Regarding `O=C(Nc1nn(Cc2ccc(C(F)(F)F)cc2)c2ccccc12)c1cccnc1` [Compound 54, N-(1-(4-(trifluoromethyl)benzyl)-1H-indazol-3-yl)nicotinamide], the inhibition at 50 µM was less than 10%.

Consider `O=C(Nc1nn(Cc2ccc(C(F)(F)F)cc2)c2ccccc12)c1ccsc1Cl` [Compound 38, 2-chloro-N-(1-(4-(trifluoromethyl)benzyl)-1H-indazol-3-yl)thiophene-3-carboxamide], for which the inhibition at 50 µM is less than 10%.

`O=C(Nc1nn(Cc2ccc(C(F)(F)F)nc2)c2ccc(C(F)(F)F)cc12)c1cccnn1` [Compound 127, N-(5-(trifluoromethyl)-1((6-(trifluoromethyl)pyridin-3-yl)methyl)-1H-indazol-3-yl)pyridazine-3-carboxamide]: the inhibition at 50 µM was less than 10%.

In the case of `O=C(Nc1nn(Cc2ccc(C(F)(F)F)cc2)c2ccccc12)c1cccs1` [Compound 9, N-(1-(4-(trifluoromethyl)benzyl)-1H-indazol-3-yl)thiophene-2-carboxamide], the inhibition at 50 µM was 60%.

On to `Cc1cccc(C(=O)Nc2nn(Cc3ccc(C(F)(F)F)cc3)c3ccccc23)c1` [Compound 17, 3-methyl-N-(1-(4-(trifluoromethyl)benzyl)-1H-indazol-3-yl)benzamide], for which the inhibition at 50 µM was less than 10%.

With `Cc1ccc(Cn2nc(NC(=O)c3cccnn3)c3ccccc32)cc1` [Compound 83, N-(1-(4-methylbenzyl)-1H-indazol-3-yl)pyridazine-3-carboxamide], the inhibition at 50 µM is less than 10%.

With `Cc1ccc(-c2ccc(C(=O)Nc3nn(Cc4ccc(C(F)(F)F)cc4)c4ccccc34)o2)cc1` [Compound 3, 5-(p-tolyl)-N-(1-(4-(trifluoromethyl)benzyl)-1H-indazol-3-yl)furan-2-carboxamide], the inhibition at 50 µM came to 10%.

Regarding `N#Cc1ccc2c(c1)c(NC(=O)c1ccoc1)nn2Cc1ccc(C(F)(F)F)nc1` [Compound 98, N-(5-cyano-1-((6-(trifluoromethyl)pyridin-3-yl)methyl)-1H-indazol-3-yl)furan-3-carboxamide], the inhibition at 50 µM is less than 10%.

Take `O=C(Nc1nn(Cc2ccc(C(F)(F)F)cc2)c2ccccc12)c1cnccn1` [Compound 53, N-(1-(4-(trifluoromethyl)benzyl)-1H-indazol-3-yl)pyrazine-2-carboxamide]: the inhibition at 50 µM is less than 10%.

For `Nc1nn(Cc2ccc(CO)cc2)c2ccccc12` [Compound 103, (4-((3-amino-1H-indazol-1-yl)methyl)phenyl)methanol], the inhibition at 50 µM is less than 10%.

The values are drawn from patent publication US10227345B2, “Compounds and methods for inhibiting fascin” (Cornell University, priority 2014, dated 2019).
